Assay results: article PMC9108036 (Biomedicine & Pharmacotherapy, 2022)

Test system: lentiviral pseudovirus with SARS-CoV-2 spike D614G
Type: cell-based

In the case of `CN(C)CCCN1c2ccccc2Sc2ccc(Cl)cc21` [Chlorpromazine], the IC50 is reported as 9.63 µM.
For `Nc1nc(Cl)nc2c1ncn2[C@H]1C[C@H](O)[C@@H](CO)O1` [Cladribine], the IC50 was 7.74 µM.
`O=c1[nH]cc(F)c(=O)[nH]1` [Fluorouracil] gave an IC50 of 7.01 µM.
`CCCCC[C@H](O)/C=C/[C@H]1[C@H](O)CC(=O)[C@@H]1CCCCCCC(=O)O` [Alprostadil] gave an IC50 of 7.42 µM.
In the case of `CN(C)C(=O)COC(=O)Cc1ccc(OC(=O)c2ccc(NC(=N)N)cc2)cc1` [Camostat], the “inhibition of virus entry (in words)” value is reported as “failed to inhibit virus entry sufficiently” and the “maximum response (inhibition)” value is reported as 50%.
In the case of `CC(=O)O[C@@]12CO[C@@H]1C[C@H](O)[C@@]1(C)C(=O)[C@H](O)C3=C(C)[C@@H](OC(=O)[C@H](O)[C@@H](NC(=O)OC(C)(C)C)c4ccccc4)C[C@@](O)([C@@H](OC(=O)c4ccccc4)[C@H]21)C3(C)C` [Docetaxel], the IC50 is reported as under 0.08 µM.
For `N=C(N)c1ccc2cc(OC(=O)c3ccc(N=C(N)N)cc3)ccc2c1` [Nafamostat], the “maximum response (inhibition)” value was 50%.
